# Like-named read-outs stand apart in the source and are kept apart here.
# Tests used:
# [1] = Solubility / saturation point of Triclosan in alcohol and water; format: physicochemical
# Excerpt: In particular embodiments, an alcohol solution comprising triclosan is delivered to a hydrated acellular biologic matrix, e.g., a biologic matrix treated with a 40% SDA solution. In other embodiments, the matrix is hydrated with e.g., water, saline solution, and the like. Without being bound to theory, it is thought that the triclosan will partially separate from the alcohol phase due to the triclosan's great differential solubility (alcohol soluble and water insoluble) and deposit as an undissolved agent on the surface of and within the biologic tissue. Therefore, after implantation of the triclosan-treated biologic tissue into a subject, the triclosan will slowly exude or leach off the biologic tissue and out of the alcohol layer directly into the wound zone where bacteria may be collecting. Moreover, some of the triclosan may be held by the insoluble water phase and assist in this slow release. In this regard, where the soluble form of triclosan in alcohol would typically be active right away and dissipate within 8-12 hours in a transplant subject, such as a human abdominal hernia patient, it is thought that the precipitated triclosan in a transplanted treated acellular matrix of the subject invention will reside longer at the wound site, e.g., up to about 24-48 hours after transplantation, thereby increasing the effective amount of anti-infective available at the wound site. […]
# [2] = cited from earlier work
smiles,measurement,setting,value
"Oc1cc(Cl)ccc1Oc1ccc(Cl)cc1Cl [Triclosan, 2,4,4′-trichloro-2′-hydroxy-diphenyl-ether]",saturation point,[1]; 25% alcohol,600 ppm
same,saturation point,[1]; 30% alcohol,1700 ppm
same,"solubility, in words",[2]; in alcohol,very soluble
same,"solubility, in words",[2]; in water,very insoluble
